Data taken from ChEMBL document CHEMBL4152339, “Design and synthesis of novel 1H-tetrazol-5-amine based potent antimicrobial agents: DNA topoisomerase IV and gyrase affinity evaluation supported by molecular docking studies” (Eur J Med Chem, 2018).
≈ marks a conversion by molar mass, not a printed value.

Assays:
Format in all cases: functional
Escherichia coli [1] = assay: Antibacterial activity against Escherichia coli ML 5 after 18 hrs by CLSI disc diffusion method; conditions: ML 5, 18 h
Pseudomonas aeruginosa [2] = assay: Antibacterial activity against Pseudomonas aeruginosa 18m after 18 hrs by CLSI disc diffusion method
Pseudomonas aeruginosa [3] = assay: Antibacterial activity against Pseudomonas aeruginosa 31m after 18 hrs by CLSI disc diffusion method
[4] = test system: Staphylococcus epidermidis; assay: Antibacterial activity against Staphylococcus epidermidis 511 after 18 hrs by CLSI disc diffusion method; conditions: Staphylococcus epidermidis, 511, 18 h
Escherichia coli [5] = assay: Antibacterial activity against Escherichia coli ML 9 after 18 hrs by CLSI disc diffusion method; conditions: ML 9, 18 h
[6] = test system: Staphylococcus epidermidis; assay: Antibacterial activity against Staphylococcus epidermidis 432 after 18 hrs by CLSI disc diffusion method; conditions: Staphylococcus epidermidis, 432, 18 h
Staphylococcus aureus [7] = assay: Antibacterial activity against Staphylococcus aureus 537 after 18 hrs by CLSI disc diffusion method; conditions: Staphylococcus aureus, 537, 18 h
[8] = test system: Staphylococcus epidermidis; assay: Antibacterial activity against Staphylococcus epidermidis 471 after 18 hrs by CLSI disc diffusion method; conditions: Staphylococcus epidermidis, 471, 18 h
Pseudomonas aeruginosa [9] = assay: Antibacterial activity against Pseudomonas aeruginosa 12m after 18 hrs by CLSI disc diffusion method
Staphylococcus aureus [10] = assay: Antibacterial activity against Staphylococcus aureus 572 after 18 hrs by CLSI disc diffusion method; conditions: Staphylococcus aureus, 572, 18 h
Escherichia coli [11] = assay: Antibacterial activity against Escherichia coli ML 16 after 18 hrs by CLSI disc diffusion method; conditions: ML 16, 18 h
Micrococcus luteus [12] = assay: Antibacterial activity against Micrococcus luteus ATCC 10240 after 18 hrs by CLSI disc diffusion method; conditions: ATCC 10240, 18 h
Pseudomonas aeruginosa [13] = assay: Antibacterial activity against Pseudomonas aeruginosa 11m after 18 hrs by CLSI disc diffusion method
[14] = test system: Staphylococcus epidermidis; assay: Antibacterial activity against Staphylococcus epidermidis ATCC 35984 after 18 hrs by CLSI […] method; conditions: ATCC 35984, 18 h
Staphylococcus aureus [15] = assay: Antibacterial activity against Staphylococcus aureus 586 after 18 hrs by CLSI disc diffusion method; conditions: Staphylococcus aureus, 586, 18 h
Escherichia coli [16] = assay: Antibacterial activity against Escherichia coli ML 12 after 18 hrs by CLSI disc diffusion method; conditions: ML 12, 18 h
Staphylococcus aureus [17] = assay: Antibacterial activity against Staphylococcus aureus 585 after 18 hrs by CLSI disc diffusion method; conditions: Staphylococcus aureus, 585, 18 h
Enterococcus hirae = assay: Antibacterial activity against Enterococcus hirae ATCC 10541 after 18 hrs by CLSI disc diffusion method; conditions: ATCC 10541, 18 h
Escherichia coli [18] = assay: Antibacterial activity against Escherichia coli ML 17 after 18 hrs by CLSI disc diffusion method; conditions: ML 17, 18 h
[19] = test system: Staphylococcus epidermidis; assay: Antibacterial activity against Staphylococcus epidermidis 431 after 18 hrs by CLSI disc diffusion method; conditions: Staphylococcus epidermidis, 431, 18 h
Pseudomonas aeruginosa [20] = assay: Antibacterial activity against Pseudomonas aeruginosa ATCC 15442 after 18 hrs by CLSI disc diffusion method; conditions: ATCC 15442, 18 h
Escherichia coli [21] = assay: Antibacterial activity against Escherichia coli ML 8 after 18 hrs by CLSI disc diffusion method; conditions: ML 8, 18 h
[22] = test system: Staphylococcus epidermidis; assay: Antibacterial activity against Staphylococcus epidermidis 423 after 18 hrs by CLSI disc diffusion method; conditions: Staphylococcus epidermidis, 423, 18 h
Pseudomonas aeruginosa [23] = assay: Antibacterial activity against Pseudomonas aeruginosa 16m after 18 hrs by CLSI disc diffusion method
Staphylococcus aureus [24] = assay: Antibacterial activity against Staphylococcus aureus ATCC 25923 after 18 hrs by CLSI disc diffusion method; conditions: ATCC 25923, 18 h
Proteus vulgaris = assay: Antibacterial activity against Proteus vulgaris NCTC 4635 after 18 hrs by CLSI disc diffusion method; conditions: NCTC 4635, 18 h
Escherichia coli [25] = assay: Antibacterial activity against Escherichia coli ML 15 after 18 hrs by CLSI disc diffusion method; conditions: ML 15, 18 h
Staphylococcus aureus [26] = assay: Antibacterial activity against Staphylococcus aureus 498 after 18 hrs by CLSI disc diffusion method; conditions: Staphylococcus aureus, 498, 18 h
[27] = test system: Staphylococcus epidermidis; assay: Antibacterial activity against Staphylococcus epidermidis ATCC 12228 after 18 hrs by CLSI disc diffusion method; conditions: ATCC 12228, 18 h
[28] = test system: Bordetella bronchiseptica; assay: Antibacterial activity against Bordetella bronchiseptica ATCC 4617 after 18 hrs by CLSI disc diffusion method; conditions: ATCC 4617, 18 h
Escherichia coli [29] = assay: Antibacterial activity against Escherichia coli ATCC 10538 after 18 hrs by CLSI disc diffusion method; conditions: ATCC 10538, 18 h
Pseudomonas aeruginosa [30] = assay: Antibacterial activity against Pseudomonas aeruginosa 10m after 18 hrs by CLSI disc diffusion method
Enterococcus faecalis = assay: Antibacterial activity against Enterococcus faecalis ATCC 29212 after 18 hrs by CLSI disc diffusion method; conditions: ATCC 29212, 18 h
Staphylococcus aureus [31] = assay: Antibacterial activity against Staphylococcus aureus 497 after 18 hrs by CLSI disc diffusion method; conditions: Staphylococcus aureus, 497, 18 h
[32] = test system: Staphylococcus epidermidis; assay: Antibacterial activity against Staphylococcus epidermidis 510 after 18 hrs by CLSI disc diffusion method; conditions: Staphylococcus epidermidis, 510, 18 h
Pseudomonas aeruginosa [33] = assay: Antibacterial activity against Pseudomonas aeruginosa 6m after 18 hrs by CLSI disc diffusion method
Escherichia coli [34] = assay: Antibacterial activity against Escherichia coli ML 6 after 18 hrs by CLSI disc diffusion method; conditions: ML 6, 18 h
Micrococcus luteus [35] = assay: Antibacterial activity against Micrococcus luteus ATCC 9341 after 18 hrs by CLSI disc diffusion method; conditions: ATCC 9341, 18 h
Bacillus cereus = assay: Antibacterial activity against Bacillus cereus ATCC 11778 after 18 hrs by CLSI disc diffusion method; conditions: ATCC 11778, 18 h
Pseudomonas aeruginosa [36] = assay: Antibacterial activity against Pseudomonas aeruginosa ATCC 27853 after 18 hrs by CLSI disc diffusion method; conditions: ATCC 27853, 18 h
[37] = test system: Staphylococcus epidermidis; assay: Antibacterial activity against Staphylococcus epidermidis 469 after 18 hrs by CLSI disc diffusion method; conditions: Staphylococcus epidermidis, 469, 18 h
Pseudomonas aeruginosa [38] = assay: Antibacterial activity against Pseudomonas aeruginosa 7m after 18 hrs by CLSI disc diffusion method
Staphylococcus aureus [39] = assay: Antibacterial activity against Staphylococcus aureus 496 after 18 hrs by CLSI disc diffusion method; conditions: Staphylococcus aureus, 496, 18 h
Staphylococcus aureus [40] = assay: Antibacterial activity against Staphylococcus aureus ATCC 6538 after 18 hrs by CLSI disc diffusion method; conditions: ATCC 6538, 18 h
Bacillus spizizenii = assay: Antibacterial activity against Bacillus subtilis ATCC 6633 after 18 hrs by CLSI disc diffusion method; conditions: ATCC 6633, 18 h
Staphylococcus aureus [41] = assay: Antibacterial activity against Staphylococcus aureus 495 after 18 hrs by CLSI disc diffusion method; conditions: Staphylococcus aureus, 495, 18 h
[42] = test system: Staphylococcus epidermidis; assay: Antibacterial activity against Staphylococcus epidermidis 433 after 18 hrs by CLSI disc diffusion method; conditions: Staphylococcus epidermidis, 433, 18 h
Staphylococcus aureus [43] = assay: Antibacterial activity against Staphylococcus aureus NCTC 4163 after 18 hrs by CLSI disc diffusion method; conditions: NCTC 4163, 18 h

`O=C(O)n1nnnc1Nn1cnnc1` gave an MIC (Escherichia coli [1]) of 326 µM (≈ 63.9 µg/mL), an MIC (Pseudomonas aeruginosa [2]) of 652 µM (≈ 128 µg/mL) and an MIC (Pseudomonas aeruginosa [3]) of 326 µM (≈ 63.9 µg/mL). For the same molecule, the MIC [4] was 20 µM (≈ 3.92 µg/mL), the MIC (Escherichia coli [5]) was 326 µM (≈ 63.9 µg/mL) and the MIC [6] was 41 µM (≈ 8.04 µg/mL). The MIC (Staphylococcus aureus [7]) was 82 µM (≈ 16.1 µg/mL), the MIC [8] was 41 µM (≈ 8.04 µg/mL) and the MIC (Pseudomonas aeruginosa [9]) was 326 µM (≈ 63.9 µg/mL). The MIC (Staphylococcus aureus [10]) was 41 µM (≈ 8.04 µg/mL), the MIC (Escherichia coli [11]) was 326 µM (≈ 63.9 µg/mL) and the MIC (Micrococcus luteus [12]) was 20 µM (≈ 3.92 µg/mL). For the same molecule, the MIC (Pseudomonas aeruginosa [13]) was 652 µM (≈ 128 µg/mL), the MIC [14] was 5 µM (≈ 0.981 µg/mL) and the MIC (Staphylococcus aureus [15]) was 82 µM (≈ 16.1 µg/mL). The MIC (Escherichia coli [16]) was greater than 1300 µM, the MIC (Staphylococcus aureus [17]) was 82 µM (≈ 16.1 µg/mL) and the MIC (Enterococcus hirae) was 10 µM (≈ 1.96 µg/mL). The MIC (Escherichia coli [18]) was 326 µM (≈ 63.9 µg/mL), the MIC [19] was 20 µM (≈ 3.92 µg/mL) and the MIC (Pseudomonas aeruginosa [20]) was 1300 µM (≈ 256 µg/mL). The MIC (Escherichia coli [21]) was 326 µM (≈ 63.9 µg/mL), the MIC [22] was 20 µM (≈ 3.92 µg/mL) and the MIC (Pseudomonas aeruginosa [23]) was 326 µM (≈ 63.9 µg/mL). The MIC (Staphylococcus aureus [24]) was 20 µM (≈ 3.92 µg/mL), the MIC (Proteus vulgaris) was 10 µM (≈ 1.96 µg/mL) and the MIC (Escherichia coli [25]) was 1300 µM (≈ 256 µg/mL). For the same molecule, the MIC (Staphylococcus aureus [26]) was 82 µM (≈ 16.1 µg/mL), the MIC [27] was 10 µM (≈ 1.96 µg/mL) and the MIC [28] was 652 µM (≈ 128 µg/mL). For the same molecule, the MIC (Escherichia coli [29]) was 20 µM (≈ 3.92 µg/mL), the MIC (Pseudomonas aeruginosa [30]) was 326 µM (≈ 63.9 µg/mL) and the MIC (Enterococcus faecalis) was 10 µM (≈ 1.96 µg/mL). It also gave an MIC (Staphylococcus aureus [31]) of 82 µM (≈ 16.1 µg/mL), an MIC [32] of 20 µM (≈ 3.92 µg/mL) and an MIC (Pseudomonas aeruginosa [33]) of 326 µM (≈ 63.9 µg/mL). The MIC (Escherichia coli [34]) was 1300 µM (≈ 256 µg/mL), the MIC (Micrococcus luteus [35]) was 20 µM (≈ 3.92 µg/mL) and the MIC (Bacillus cereus) was 10 µM (≈ 1.96 µg/mL). For the same molecule, the MIC (Pseudomonas aeruginosa [36]) was 1300 µM (≈ 256 µg/mL), the MIC [37] was 20 µM (≈ 3.92 µg/mL) and the MIC (Pseudomonas aeruginosa [38]) was 326 µM (≈ 63.9 µg/mL). For the same molecule, the MIC (Staphylococcus aureus [39]) was 82 µM (≈ 16.1 µg/mL), the MIC (Staphylococcus aureus [40]) was 20 µM (≈ 3.92 µg/mL) and the MIC (Bacillus spizizenii) was 5 µM (≈ 0.981 µg/mL). The MIC (Staphylococcus aureus [41]) was 41 µM (≈ 8.04 µg/mL), the MIC [42] was 20 µM (≈ 3.92 µg/mL) and the MIC (Staphylococcus aureus [43]) was 20 µM (≈ 3.92 µg/mL).
